Measured values reported in patent publication US7829526B2, “Cardioinhibitory/antihypertensive novel endogenous physiologically active peptide” (Japan Science and Technology Agency, priority 2004, dated 2010).

What was measured:
[1] = Cardioinhibitory or hypotensive activity of deletion variants and homologue (method not described); details: variants of SEQ ID No: 2
[2] = tested on: isolated, perfused rat hearts; assay: Isolated heart working model (isolated perfused rat heart); details: for cardiac contractility (inotropism): rat hearts, direct action on heart
Experimental: Isolated heart working model was used for estimating direct effect on cardiac muscle, according to a method described previously (Nat Med 9:[…], 2003). A heart isolated from a rat was set on an isolated heart perfusion apparatus (Primetech Corporation, IPH-W2) which was perfused with a Krebs Henseleit Buffer at 37° C., and stabilized. Subsequently, synthetic peptides were administered (10^−8 mol/l). Then, HR, SP, DP, MAP and aortic flow (AF) were measured over a period of 15 min. Coronary flow (CF) was measured by collecting coronary sinus effluent before and at 5 and 10 min after administering the peptide agent. Based on the obtained data, cardiac output (CO) was calculated by adding AF and CF, whereas stroke volume (SV) was obtained by dividing CO by HR, and then normalized by the heart volume of each rat.

intact-rats = assay: Effect of synthesized peptide on intact anesthetized rats (blood pressure, heart rate, aortic flow); format: in vivo, rat; details: for hypotensive effect: anesthetized SD rats, synthetic peptide 10 nmol/kg intravenously
Experimental: Meanwhile, a peptide of the present invention consisting of the amino acid sequence shown by SEQ ID No: 2 determined in Example 1, was synthesized with the use of a peptide synthesizer (Shimadzu, PSSM-8), and tested in the following experiment. SD rats weighing 400 to 525 g were used as test animals.
SD rats were anesthetized by intraperitoneal pentobarbital sodium (50 mg/kg), and a synthesized peptide was administered intravenously via a catheter placed in the […]. Heart rates and blood pressure were measured according to a method described previously (Nat Med 9: 1166-72, 2003) with the use of an electromagnetic flowmeter (MFV-1100, Nihon Koden). Further, a flowmeter was attached to the abdominal aorta, and aortic flow was measured according to the above method described previously. Synthetic peptides (10 nmol/kg) were administered intravenously over a period of 15 seconds or more, and systolic pressure (SP), diastolic pressure (DP) mean aortic pressure (MAP), heart rate (HR) were measured. A hypotensive effect of a synthetic peptide of the present invention was observed.

SD rats = details: cited from earlier work; for hypotensive and bradycardiac effects: 1 min after intravenous administration, SD rats under pentobarbital anesthesia; for dose dependence of hypotensive and bradycardiac effects: salusin-α 1-10 nmol/kg, salusin-β 0.1-1 nmol/kg
[3] = tested on: isolated rat aortic preparation; details: intact and endothelium-detached preparations, unconstricted or constricted with phenylephrine; cited from earlier work
[4] = intravenous administration into anesthetized rats

Substance	cardioinhibitory activity or hypotensive activity [1]	hypotensive and bradycardiac effects (SD rats)	hypotensive effects after pretreatment with NO synthase inhibitor L-NAME (SD rats)	dose dependence of hypotensive and bradycardiac effects (SD rats)	direct effect on isolated rat aorta [3]	further results
(1-20): SEQ ID No: 2 wherein 4 amino acids at C-terminal end are deleted (AIFIFISNTGGKQINQVALE; listed as Homo sapiens)	potent cardioinhibitory activity or hypotensive activity is maintained					
(2-13): SEQ ID No: 2 wherein 11 amino acids at C-terminal end and 1 amino acid at N-terminal end are deleted (IFIFISNTGGKQ; listed as Homo sapiens)	the activity is somewhat decreased					
(5-24): SEQ ID No: 2 wherein 4 amino acids at N terminal end are deleted (FISNTGGKQINQVALEAWRS; listed as Homo sapiens)	potent cardioinhibitory activity or hypotensive activity is maintained					
AIFIFISNTGGKQINQVALEAWRS (listed as Homo sapiens) [peptide of the present invention, human-derived 24 amino acid peptide translated from TOR2A mRNA]						coronary flow ([2]; isolated rat heart, peptide 10^−8 mol/l, before and at 5 and 10 min, FIG. 2): lowering coronary flow; cardiac contractility (inotropism) [2]: potently reduce cardiac contractility; cardiac contractility (inotropism) ([2]; listed as This peptide): negative inotropism; hypotensive effect (intact-rats; FIG. 1, listed as This peptide): significant hypotensive activity; hypotensive effect (intact-rats; FIG. 1, listed as synthetic peptide of the present invention): observed; aortic blood flow (intact-rats; [4]): reduced; heart rates (intact-rats; [4]): reduced; aortic pressure (intact-rats; intravenous administration into anesthetized rats, FIG. 1): marked lowering; negative inotropic and chronotropic effects (intact-rats; rank among endogenous peptides, FIG. 2): most potent endogenous peptide identified thus far
salusin-α: related peptide of 28 amino acids biosynthesized by processing of preprosalusin (SGALPPAPAAPRPALRAQRAGPAGPGAK; salusin-alpha)		rapid hypotensive and bradycardiac effects	not affected	dose-responsive	did not show any direct effect	
salusin-β: related peptide of 20 amino acids biosynthesized by processing of preprosalusin (AIFIFIRWLLKLGHHGRAPP; salusin-beta)		rapid hypotensive and bradycardiac effects	not affected	dose-responsive	did not show any direct effect	potency compared to salusin-α (SD rats; hypotensive and bradycardiac effects): approximately 10 fold
